In ChEMBL document CHEMBL4177717, “7-Methylguanosine monophosphate analogues with 5'-(1,2,3-triazoyl) moiety: Synthesis and evaluation as the inhibitors of cNIIIB nucleotidase” (Bioorg Med Chem, 2018):
Calls of active or inactive are those of the source. The calls are words filed in the database; no cut-off is given here.

T1: 7-methylguanosine phosphate-specific 5'-nucleotidase (Homo sapiens) (UniProt Q969T7)
T1 sequence (whole entry): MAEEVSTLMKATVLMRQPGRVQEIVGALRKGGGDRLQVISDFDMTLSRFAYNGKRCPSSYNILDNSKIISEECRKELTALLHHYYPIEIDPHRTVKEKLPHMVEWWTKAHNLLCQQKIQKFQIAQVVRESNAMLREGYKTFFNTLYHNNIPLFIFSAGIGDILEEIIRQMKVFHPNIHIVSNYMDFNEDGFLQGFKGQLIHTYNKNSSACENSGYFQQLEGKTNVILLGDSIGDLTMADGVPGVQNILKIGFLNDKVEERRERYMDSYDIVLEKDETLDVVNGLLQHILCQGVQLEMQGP

T2: m7GpppX diphosphatase (Homo sapiens, UniProt Q96C86)
T2 sequence (Q96C86 whole entry): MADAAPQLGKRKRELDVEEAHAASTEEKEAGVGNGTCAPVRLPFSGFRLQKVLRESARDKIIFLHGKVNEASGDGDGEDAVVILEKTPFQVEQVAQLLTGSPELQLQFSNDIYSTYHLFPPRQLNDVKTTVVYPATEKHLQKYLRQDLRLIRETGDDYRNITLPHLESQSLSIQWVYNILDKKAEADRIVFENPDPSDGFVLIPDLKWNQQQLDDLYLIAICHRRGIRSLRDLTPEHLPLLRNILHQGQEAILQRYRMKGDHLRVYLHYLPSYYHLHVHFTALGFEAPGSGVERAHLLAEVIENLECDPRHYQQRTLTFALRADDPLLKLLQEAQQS

T3: 7-methylguanosine phosphate-specific 5'-nucleotidase (Homo sapiens, UniProt Q969T7)
T3 sequence (Q969T7 whole entry): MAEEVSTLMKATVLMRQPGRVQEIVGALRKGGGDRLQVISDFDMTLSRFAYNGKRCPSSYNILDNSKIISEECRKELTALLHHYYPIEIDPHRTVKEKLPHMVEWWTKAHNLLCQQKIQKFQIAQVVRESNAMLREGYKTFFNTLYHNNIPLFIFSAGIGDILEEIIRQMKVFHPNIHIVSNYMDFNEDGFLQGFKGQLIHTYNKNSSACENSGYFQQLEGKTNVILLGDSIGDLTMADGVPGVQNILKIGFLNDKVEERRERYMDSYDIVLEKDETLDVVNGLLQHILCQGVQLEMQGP

T4: m7GpppX diphosphatase (Homo sapiens) (UniProt Q96C86)
T4 sequence (whole entry): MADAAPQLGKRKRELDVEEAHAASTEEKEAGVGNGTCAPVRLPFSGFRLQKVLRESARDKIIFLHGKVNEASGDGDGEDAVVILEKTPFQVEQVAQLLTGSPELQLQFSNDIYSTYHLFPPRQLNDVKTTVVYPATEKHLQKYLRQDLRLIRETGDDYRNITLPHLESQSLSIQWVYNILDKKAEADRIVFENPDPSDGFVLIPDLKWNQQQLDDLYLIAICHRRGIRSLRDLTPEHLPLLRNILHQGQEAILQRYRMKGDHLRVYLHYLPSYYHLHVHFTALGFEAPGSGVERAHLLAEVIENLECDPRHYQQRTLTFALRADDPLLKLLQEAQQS


Key:
[1] = biological target: T1, 7-methylguanosine phosphate-specific 5'-nucleotidase (Homo sapiens); assay: Activation of recombinant His6/SUMO-tagged human cN3B (1 to 300 residues) expressed in Escherichia coli BL21(DE3) RIL assessed as increase in dephosphorylation of m7GMP substrate at 200 uM after 45 mins by HPLC method
[2] = biological target: T1, 7-methylguanosine phosphate-specific 5'-nucleotidase (Homo sapiens); assay: Inhibition of recombinant His6/SUMO-tagged human cN3B (1 to 300 residues) expressed in Escherichia coli BL21(DE3) RIL assessed as reduction in dephosphorylation of m7GMP substrate at 200 uM after 45 mins by malachite green dye based assay relative to control
[3] = Chemical stability of the compound in pH >8 solution at 100 uM after 24 hrs by RP-HPLC analysis; format: physicochemical
[4] = biological target: T1, 7-methylguanosine phosphate-specific 5'-nucleotidase (Homo sapiens); assay: Activation of recombinant His6/SUMO-tagged human cN3B (1 to 300 residues) expressed in Escherichia coli BL21(DE3) RIL assessed as increase in dephosphorylation of m7GMP substrate at 100 uM after 45 mins by malachite green dye based assay
[5] = biological target: T1, 7-methylguanosine phosphate-specific 5'-nucleotidase (Homo sapiens); assay: Inhibition of recombinant His6/SUMO-tagged human cN3B (1 to 300 residues) expressed in Escherichia coli BL21(DE3) RIL assessed as reduction in dephosphorylation of m7GMP substrate at 200 uM after 45 mins by HPLC method relative to control
[6] = biological target: T1, 7-methylguanosine phosphate-specific 5'-nucleotidase (Homo sapiens); assay: Substrate activity at recombinant His6/SUMO-tagged human cN3B (1 to 300 residues) expressed in Escherichia coli BL21(DE3) RIL assessed as compound dephosphorylation at 100 uM up to 150 mins by HPLC method
[7] = Chemical stability of the compound in pH 6 to 8 PBS at 100 uM after 24 hrs by RP-HPLC analysis; format: physicochemical; conditions: buffer, pH 6, 24 h
[8] = biological target: T2, m7GpppX diphosphatase; assay: Inhibition of human DCPS using m7GMPF as substrate after 30 mins by nucleoside 5'-fluorophosphate probe based HTS assay
[9] = biological target: Eukaryotic translation initiation factor 4E (Mus musculus, UniProt P63073); assay: Inhibition of fluorescein-labeled m7GDPC4H5 binding to mouse eIF4E (28 to 217 residues) by MST method; conditions: read-out: Kd(app)
[10] = species on record: Homo sapiens; assay: Selectivity ratio of IC50 for human DCPS to IC50 for recombinant His6/SUMO-tagged human cN3B (1 to 300 residues) expressed in Escherichia coli BL21(DE3) RIL
[11] = biological target: T3, 7-methylguanosine phosphate-specific 5'-nucleotidase; assay: Inhibition of recombinant His6/SUMO-tagged human cN3B (1 to 300 residues) expressed in Escherichia coli BL21(DE3) RIL assessed as reduction in dephosphorylation of m7GMP substrate after 45 mins by malachite green dye based assay
[12] = biological target: T4, m7GpppX diphosphatase (Homo sapiens); assay: Inhibition of human DCPS using m7GMPF assessed as reduction in conversion of m7GpppG to GDP at 200 uM after 45 mins in presence of human cN3B by HPLC method
[13] = biological target: T3, 7-methylguanosine phosphate-specific 5'-nucleotidase; assay: Inhibition of recombinant His6/SUMO-tagged human cN3B (1 to 300 residues) expressed in Escherichia coli BL21(DE3) RIL assessed as reduction in dephosphorylation of m7GMP substrate after 45 mins by HPLC method
[14] = biological target: Eukaryotic translation initiation factor 4E (Homo sapiens, UniProt P06730); assay: Inhibition of eIF4E (unknown origin)
[15] = biological target: T1, 7-methylguanosine phosphate-specific 5'-nucleotidase (Homo sapiens); assay: Inhibition of recombinant His6/SUMO-tagged human cN3B (1 to 300 residues) expressed in Escherichia coli BL21(DE3) RIL assessed as reduction in conversion of m7GMP to m7Guo at 200 uM after 45 mins in presence of human DCPS by HPLC method
[16] = substrate: C[n+]1cn([C@@H]2O[C@H](Cn3cc(OCP(=O)([O-])O)nn3)[C@@H](O)[C@H]2O)c2nc(N)[nH]c(=O)c21; assay: Substrate activity at recombinant His6/SUMO-tagged human cN3B (1 to 300 residues) expressed in Escherichia coli BL21(DE3) RIL assessed as compound dephosphorylation by Kcat up to 30 mins by malachite green dye based assay
[17] = substrate: C[n+]1cn([C@@H]2O[C@H](Cn3cc(OCP(=O)([O-])O)nn3)[C@@H](O)[C@H]2O)c2nc(N)[nH]c(=O)c21; assay: Substrate activity at recombinant His6/SUMO-tagged human cN3B (1 to 300 residues) expressed in Escherichia coli BL21(DE3) RIL assessed as compound dephosphorylation up to 30 mins by malachite green dye based assay
[18] = substrate: C[n+]1cn([C@@H]2O[C@H](Cn3cc(OCP(=O)([O-])O)nn3)[C@@H](O)[C@H]2O)c2nc(N)[nH]c(=O)c21; assay: Substrate activity at recombinant His6/SUMO-tagged human cN3B (1 to 300 residues) expressed in Escherichia coli BL21(DE3) RIL assessed as compound dephosphorylation by Vmax up to 30 mins by malachite green dye based assay
[19] = substrate: C[n+]1cn([C@@H]2O[C@H](Cn3cc(OCP(=O)([O-])O)nn3)[C@@H](O)[C@H]2O)c2nc(N)[nH]c(=O)c21; assay: Substrate activity at recombinant His6/SUMO-tagged human cN3B (1 to 300 residues) expressed in Escherichia coli BL21(DE3) RIL assessed as compound dephosphorylation by measuring ratio of Kcat to Km up to 30 mins by malachite green dye based assay

Sequence of Eukaryotic translation initiation factor 4E (Homo sapiens, UniProt P06730) (P06730 whole entry, the tested form may be a part): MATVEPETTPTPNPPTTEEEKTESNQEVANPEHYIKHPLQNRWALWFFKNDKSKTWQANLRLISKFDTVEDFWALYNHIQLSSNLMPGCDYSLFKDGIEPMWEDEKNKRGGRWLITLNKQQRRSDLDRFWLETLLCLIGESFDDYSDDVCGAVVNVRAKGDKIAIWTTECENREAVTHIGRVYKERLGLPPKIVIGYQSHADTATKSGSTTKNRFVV
Sequence of Eukaryotic translation initiation factor 4E (Mus musculus, UniProt P63073) (P63073 whole entry, the tested form may be a part): as the sequence (P06730 whole entry, the tested form may be a part) above, with P12T, T16P, T17A, E174D counted along it

Molecule | inhibition [2] | Stability [3] | Activity [4] | inhibition [5] | Activity [6] | Stability [7] | IC50 [8] [µM] | also measured
C[n+]1cn([C@@H]2O[C@H](COP(=O)([O-])O)[C@@H](O)[C@H]2O)c2nc(N)[nH]c(=O)c21 |  |  |  |  | Active |  | 42.2 | 
C[n+]1cn([C@@H]2O[C@H](COP(=O)([O-])OP(=O)(O)O)[C@@H](O)[C@H]2O)c2nc(N)[nH]c(=O)c21 |  |  |  |  |  |  | 1.8 | 
C[n+]1cn([C@@H]2O[C@H](Cn3cc(OCP(=O)([O-])O)nn3)[C@@H](O)[C@H]2O)c2nc(N)[nH]c(=O)c21 |  | Unstable | Active | inactive | Active | Stable |  | 
7-methylguanosine phosphate-specific 5'-nucleotidase (Homo sapiens), Q969T7 (protein) MAEEVSTLMKATVLMRQPGRVQEIVGALRKGGGDRLQVISDFDMTLSRFAYNGKRCPSSYNILDNSKIISEECRKELTALLHHYYPIEIDPHRTVKEKLPHMVEWWTKAHNLLCQQKIQKFQIAQVVRESNAMLREGYKTFFNTLYHNNIPLFIFSAGIGDILEEIIRQMKVFHPNIHIVSNYMDFNEDGFLQGFKGQLIHTYNKNSSACENSGYFQQLEGKTNVILLGDSIGDLTMADGVPGVQNILKIGFLNDKVEERRERYMDSYDIVLEKDETLDVVNGLLQHILCQGVQLEMQGP |  |  |  |  |  |  |  | kcat [16]: 1.16 s⁻¹; Km [17]: 82 µM; Vmax [18]: 1.6 µmol/min/mg; kcat/Km [19]: 11000 M⁻¹ s⁻¹

The next lines start with results.

inhibition [2] | Stability [3] | Activity [4] | inhibition [5] | Activity [6] | Stability [7] | IC50 [8] [µM] | Molecule | also measured
inactive | Unstable | inactive | inactive | inactive | Stable |  | C[n+]1cn([C@@H]2O[C@H](Cn3cc(CCP(=O)([O-])O)nn3)[C@@H](O)[C@H]2O)c2nc(N)[nH]c(=O)c21 | Activity [1]: inactive
51% | Unstable |  | 67% | inactive | Stable | 244 | C[n+]1cn([C@@H]2O[C@H](Cn3cc(P(=O)([O-])O)nn3)[C@@H](O)[C@H]2O)c2nc(N)[nH]c(=O)c21 | Kd [9]: 5.9 µM; Ratio IC50 [10]: 3; IC50 [11]: 128 µM; inhibition [12]: inactive; IC50 [13]: 87.8 µM; Ki [14]: 382 µM; inhibition [15]: Active
inactive | Unstable | inactive | inactive | inactive | Stable |  | C[n+]1cn([C@@H]2O[C@H](Cn3cc(CP(=O)([O-])O)nn3)[C@@H](O)[C@H]2O)c2nc(N)[nH]c(=O)c21 | Activity [1]: inactive
